These are literature values, as cited in paper PMC5132270 (Cancer Science, 2016).

Series [1] relates to models of crizotinib resistance. The settings on record: preclinical studies.

On to `CCc1cc2c(cc1N1CCC(N3CCOCC3)CC1)C(C)(C)c1[nH]c3cc(C#N)ccc3c1C2=O` [alectinib], for which the antitumor effect result in series [1] is listed as “tumor size reduction”.
Take `Cc1cc(Nc2ncc(Cl)c(Nc3ccccc3S(=O)(=O)C(C)C)n2)c(OC(C)C)cc1C1CCNCC1` [ceritinib]: in the series on ALK+ NSCLC, the “median PFS” value is 7.0 months.
